Experimental data as given in patent publication US4407805A, “Analgesic mixture of nalbuphine and zomepirac” (E. I. Du Pont de Nemours and Company, priority 1982, dated 1983).
Where two headings read alike, the source gives them in different places.

Tested on: phenyl-p-benzoquinone induced writhing in mice
Test: phenyl-p-benzoquinone induced writhing test in mice (antiphenylquinone writhing), oral, with isobologram analysis
Assay type: in vivo, mouse (male CF1)
Details: 20 min; for ED50: read-out: ED50 dose; for % mice blocked: oral
Description: The phenyl-p-benzoquinone induced writhing test in mice [H. Blumberg et al., Proc. Soc. […] The method simply consists of reading the % ED50 DOSE for each dose ratio on the best fit regression analysis curve from the mouse isobologram, multiplying each component by its effective species dose, and then forming the ratio of the amount of nalbuphine to zomepirac. […] [E. W. Pelikan, The Pharmacologist, 1, 73 (1959).]
All solutions are prepared fresh daily.
Each mouse is used only once, then discarded.
In order to study the interaction between nalbuphine and zomepirac, 6 precise dosage ratios of nalbuphine hydrochloride and zomepirac are selected.
The nature of the analgetic interaction (addition, synergism, or antagonism) is determined by graphing the results in a Loewe isobologram [S. Loewe, Pharm. Rev. 9:237-242, (1957)]. The isobologram is a quantitative method for measuring interactions between drugs where dose-effect relationships are depicted in a multi-dimensional array with lines connecting dose pairs that are equieffective in relationship to a common pharmacological endpoint. In this instance, the antiphenylquinone writhing test is used to estimate a common level of analgesic activity (ED50 dose) for the two component drugs separately and for each fixed dose-ratio combination.
If such substitution increases the response, the mixing together of the compounds is said to potentiate their effects and synergism exists.
Consider ED50 doses of mixtures of X units of compound B with Y units of compound A, whose ED50 doses are β and α, respectively. Given the hypothesis of additivity, all doses of mixtures satisfying the straight line relation,
will be ED50 doses. To test the hypothesis of additivity, ED50 doses of mixtures are estimated through probit analysis of data from experiments run at various ratios of A to B. Linear and curvilinear regression models are fitted to the data to estimate the amounts of A in respective ED50 doses, given the amount of B, (or, conversely, the amount of B, given A).
The regression is fitted to the data by the method of least squares. Residual squared deviations about the line of best fit are minimized in directions along lines from the origin through respective data points on the isobologram, these lines making angles with X-axis, tan^-1 (Y/X). This is accomplished by a transformation prior to the […] analysis. Its inverse is applied to transform the coordinates of the regression curve back to the X,Y coordinates of the isobologram.
A statistically significant regression will refute the hypothesis.
The method of least squares utilizes jointly the information contained in all of the separate data points. Statistical significance of the curvilinearity of the regression model establishes the existence of synergism (or antagonism) of the compounds in the biological system studied. The parameters in the model describe its intensity over the range of mixture ratios, from 0 to 1, the nature of which is seen readily when the regression is plotted on the isobologram.

| SMILES | ED50 (Mus musculus, po) [mg/kg] | % mice blocked (nalbuphine HCl 2.75 + zomepirac sodium 0 mg/kg) [%] | % mice blocked (nalbuphine HCl 5.5 + zomepirac sodium 0 mg/kg) [%] | % mice blocked (nalbuphine HCl 11 + zomepirac sodium 0 mg/kg) [%] | % mice blocked (nalbuphine HCl 22 + zomepirac sodium 0 mg/kg) [%] | % mice blocked (nalbuphine HCl 44 + zomepirac sodium 0 mg/kg) [%] | ED50 (drug alone, twenty minutes post oral dosing, mouse antiphenylquinone writhing test) [mg/kg] | % mice blocked (nalbuphine HCl 0 + zomepirac sodium 0.29 mg/kg) [%] | % mice blocked (nalbuphine HCl 0 + zomepirac sodium 0.58 mg/kg) [%] | % mice blocked (nalbuphine HCl 0 + zomepirac sodium 1.16 mg/kg) [%] | % mice blocked (nalbuphine HCl 0 + zomepirac sodium 2.32 mg/kg) [%] |
| --- | --- | --- | --- | --- | --- | --- | --- | --- | --- | --- | --- |
| Oc1ccc2c3c1O[C@H]1[C@@H](O)CC[C@@]4(O)[C@@H](C2)N(CC2CCC2)CC[C@]314 [Nalbuphine, (-)-17-(cyclobutylmethyl)-4,5α-epoxymorphinan-3,6α,14-triol] | 12 | 15.6 | 24.4 | 62.2 | 68.9 | 84.4 | – | – | – | – | – |
| Cc1cc(CC(=O)O)n(C)c1C(=O)c1ccc(Cl)cc1 [Zomepirac Sodium, 5-(4-chlorobenzoyl)-1,4-dimethyl-1H-pyrrole-2-acetic acid] | – | – | – | – | – | – | 1.66 | 13.3 | 20.0 | 31.1 | 75.6 |
